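Method: 48-hour compound exposure of cells in 96-well plates, five concentrations, linear interpolation of endpoints. TGI denotes the concentration required for complete inhibition of growth.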
How the values were obtained:
Experiment in all cases: NCI-60 cell line screen, 48 h
U251 CNS = tested on: U251 CNS
HOP-92 NSCLC = tested on: HOP-92 NSCLC
LOX IMVI melanoma = tested on: LOX IMVI melanoma
EKVX NSCLC = tested on: EKVX NSCLC
SK-MEL-5 melanoma = tested on: SK-MEL-5 melanoma
MALME-3M melanoma = tested on: MALME-3M melanoma
SK-MEL-2 melanoma = tested on: SK-MEL-2 melanoma
HCC-2998 colon = tested on: HCC-2998 colon
SF-268 CNS = tested on: SF-268 CNS
OVCAR-3 ovarian = tested on: OVCAR-3 ovarian
DU-145 prostate = tested on: DU-145 prostate
A549 NSCLC = tested on: A549 NSCLC
IGROV1 ovarian = tested on: IGROV1 ovarian
A498 renal = tested on: A498 renal
UO-31 renal = tested on: UO-31 renal
HOP-62 NSCLC = tested on: HOP-62 NSCLC
UACC-62 melanoma = tested on: UACC-62 melanoma
SW-620 colon = tested on: SW-620 colon
NCI-H522 lung = tested on: NCI-H522 lung
COLO 205 colon = tested on: COLO 205 colon

Structure (SMILES)	TGI (U251 CNS) [µM]	TGI (HOP-92 NSCLC) [µM]	TGI (LOX IMVI melanoma) [µM]	TGI (EKVX NSCLC) [µM]	TGI (SK-MEL-5 melanoma) [µM]	TGI (MALME-3M melanoma) [µM]	TGI (SK-MEL-2 melanoma) [µM]	TGI (HCC-2998 colon) [µM]	TGI (SF-268 CNS) [µM]	TGI (OVCAR-3 ovarian) [µM]	TGI (DU-145 prostate) [µM]	TGI (A549 NSCLC) [µM]	TGI (IGROV1 ovarian) [µM]	TGI (A498 renal) [µM]	TGI (UO-31 renal) [µM]	TGI (HOP-62 NSCLC) [µM]	TGI (UACC-62 melanoma) [µM]	TGI (SW-620 colon) [µM]	TGI (NCI-H522 lung) [µM]	TGI (COLO 205 colon) [µM]
CC(CN1NC12CCCC2)N1NC12CCCC2 (centres undefined)	> 100	> 100	> 100	> 100	> 100	> 100	> 100	> 100	> 100	> 100	> 100	> 100	> 100	> 100	> 100	> 100	> 100	> 100	> 100	> 100
CC[C@@H]1/C=C/C=C/C[C@H](C)[C@@H](O)[C@@H](C)C(=O)[C@H](C)[C@@H](O)[C@H](C)C(=O)[C@H](C)[C@@H](O)[C@H](C)/C=C/C(=O)O[C@H]2[C@@H](C)[C@@H](CC1)O[C@@]1(CC[C@@H](C)[C@@H](CC(C)O)O1)[C@@H]2C (some centres undefined)	> 25	> 20	> 25	7.44	3.38	> 24	18.1	8.52	> 25	17.7	> 11.8	> 16.9	24.9	11	–	> 25	14.5	> 25	11.4	4.62
COc1ccc(/C=C/C(=O)c2cc(OC)cc(OC)c2)cc1	7.41	60.4	15.4	20	24.2	27.8	42.3	16.3	16.4	15.1	10.8	6.96	25.7	11.7	12.4	14.6	16.9	17.6	6.29	16.8
Cc1cn2cc(-c3cccs3)nc2s1	> 100	> 100	> 100	> 100	> 100	> 100	> 100	> 100	> 100	> 100	> 100	> 100	> 100	> 100	> 100	> 100	> 100	> 100	> 100	> 100
C=C1c2nc3ccccc3n2C=C(c2ccc(OC)cc2)N1c1ccc(OCCN2CCCCC2)cc1	> 91.3	> 82	> 44	> 100	> 58.5	> 100	> 51.6	33.6	> 100	> 100	> 100	> 84.6	> 100	> 84.5	> 48.2	> 100	> 100	52.3	> 100	36.4
CN1CCN(c2cc3[nH]c4cc(O)cc(O)c4c(=O)c3cc2N)CC1	68.5	44	41.5	87.9	50.1	67.4	70.7	45.7	52.5	54.9	> 100	> 100	72.5	73.2	67.3	> 100	2.91	65.3	63.5	32
COc1cc2c(cc1OS(C)(=O)=O)N=C[C@@H]1CCCN1C2=O	> 100	> 100	> 100	> 100	> 100	> 100	> 100	> 100	> 100	> 100	> 100	> 100	> 100	> 100	> 100	–	> 100	> 100	> 100	> 100
COc1cc(CN=c2nc(N(C)C)ss2)cc(OC)c1OC	> 10	> 10	4.4	> 10	> 10	> 9.27	–	> 10	> 10	> 10	> 10	> 10	> 10	> 10	> 10	> 10	> 10	> 10	> 10	> 10
Cc1ccc2c(c1C)C(=O)C1(C2)Cc2ccc3c(c2C1=O)CCC3 (centres undefined)	> 100	> 100	–	> 100	> 100	> 100	> 100	> 100	> 100	> 100	> 100	> 100	> 100	> 100	> 100	–	> 100	> 100	> 100	> 100
CC(=O)c1ccc(Br)cc1NC1=CC(=O)c2ncccc2C1=O	19.7	26	18.9	19.4	1.3	5.69	16.9	8.54	21.7	4.09	16.4	10.6	12.4	5.85	15.8	13.1	6.13	–	10.4	11.4
